Laboratory results taken from patent US20160222024A1, “S-ENANTIOMER OF TETRACYCLIC INDOLE DERIVATIVE AS PBR LIGANDS” (priority 2013, published 2016).
Where two headings read alike, the source gives them in different places.

Columns and labels:
TSPO [1] = biological target: T1, TSPO (Homo sapiens, UniProt P30536, T147A); assay: biochemical
Procedure: (§1) Membrane protein was prepared from human platelets obtained from 4 donor whole blood samples. […] Platelet pellets were homogenized in 10 ml buffer 1 (0.32 mM sucrose, 5 mM Tris base, 1 mM MgCl2, pH 7.4, 4° C.). The homogenates were centrifuged at 48,000×g for 15 minutes at 4° C. in a Beckman J2-MC centrifuge. The supernatant was removed and pellets were re-suspended in at least 10 ml buffer 2 (50 mM Tris base, 1 mM MgCl2, pH 7.4, 4° C.) and washed by centrifugation at 48,000×g for 15 mM at 4° C. in buffer 2. Membranes were suspended in 2 ml buffer 2 and the protein concentration was determined using Protein Assay Kit II (Bio Rad cat #500-0002). Aliquots were stored at −80° C. until use.
(§2) Aliquots of membrane suspension were thawed and homogenized with assay buffer 3 (50 mM Tris base, 140 mM NaCl, 1.5 mM MgCl2, 5 mM KCl, 1.5 mM CaCl2, pH 7.4, 37° C.). […] GE180 was diluted at 11 serial dilutions ranging from 100 μM to 1 nM. Total and nonspecific binding assessments were also performed. 160 μL of platelet membranes diluted to 30 μg/mL were added to the assay plate for a final volume of 200 μL/well. Assay plates were incubated at 37° C. for at least one hour with termination of incubation by filtering onto GF/B glass fiber plates (Perkin Elmer; cat #6005177) pre-soaked in 0.1% PEI in saline for 60 minutes. Assay plates were rinsed five to six times with ice cold buffer 4 (50 mM Tris Base, 1.4 mM MgCl2, pH 7.4, 4° C.) on a Perkin Elmer Filtermate 196. Plates were then dried, the bottoms sealed, and 50 μL of MicroScint 20 (Perkin Elmer cat #6013621) was added to each well. After sealing the tops, the plates were allowed to equilibrate for at least 30 minutes and the captured radioactivity was counted on a Perkin Elmer TopCount NTX.

TSPO [2] = biological target: T2, TSPO (Homo sapiens, UniProt P30536); assay: biochemical
Procedure: as §1, §2

TSPO [3] = details: ratio of low affinity site to high affinity site; racemates
Procedure: as §1, §2

TSPO [4] = details: ratio of low affinity site to high affinity site; resolved enantiomers
Procedure: (§3) Membrane protein was prepared from human platelets obtained from 4 donor whole blood samples. Two of these donor samples were previously identified as having high affinity and 2 identified as having low affinity based on PBR28 binding affinity. Platelet pellets were homogenized in 10 ml buffer 1 (0.32 mM sucrose, 5 mM Tris base, 1 mM MgCl2, pH 7.4, 4° C.). The homogenates were centrifuged at 48,000×g for 15 minutes at 4° C. in a Beckman J2-MC centrifuge. The supernatant was removed and pellets were re-suspended in at least 10 ml buffer 2 (50 mM Tris base, 1 mM MgCl2, pH 7.4, 4° C.) and washed by centrifugation at 48,000×g for 15 mM at 4° C. in buffer 2. Membranes were suspended in 2 ml buffer 2 and the protein concentration was determined using Protein Assay Kit II (Bio Rad cat #500-0002). Aliquots were stored at −80° C. until use.
(§4) Aliquots of membrane suspension were thawed and homogenized with assay buffer 3 (50 mM Tris base, 140 mM NaCl, 1.5 mM MgCl2, 5 mM KCl, 1.5 mM CaCl2, pH 7.4, 37° C.). […] Compound 1 was diluted on a Beckman Biomek 2000 workstation at 11 serial dilutions ranging from 1 μM to 0.01 nM. GE180 was diluted at 11 serial dilutions ranging from 100 μM to 1 nM. Total and nonspecific binding assessments were also performed. 160 μL of platelet membranes diluted to 30 μg/mL were added to the assay plate for a final volume of 200 μL/well. Assay plates were incubated at 37° C. for at least one hour with termination of incubation by filtering onto GF/B glass fiber plates (Perkin Elmer; cat #6005177) pre-soaked in 0.1% PEI in saline for 60 minutes. Assay plates were rinsed five to six times with ice cold buffer 4 (50 mM Tris Base, 1.4 mM MgCl2, pH 7.4, 4° C.) on a Perkin Elmer Filtermate 196. Plates were then dried, the bottoms sealed, and 50 μL of MicroScint 20 (Perkin Elmer cat #6013621) was added to each well. After sealing the tops, the plates were allowed to equilibrate for at least 30 minutes and the captured radioactivity was counted on a Perkin Elmer TopCount NTX.

TSPO [5] = biological target: T1, TSPO; assay: biochemical; remark: listed apart in the source
Procedure: as §3, §4

TSPO [6] = biological target: T2, TSPO; assay: biochemical; remark: listed apart in the source
Procedure: as §3, §4

TSPO [7] = details: in vitro assay; LABs compared with HABs; cited from earlier work
TSPO [8] = details: compared with [11C]PBR28; cited from earlier work

T2 sequence (P30536 2-169): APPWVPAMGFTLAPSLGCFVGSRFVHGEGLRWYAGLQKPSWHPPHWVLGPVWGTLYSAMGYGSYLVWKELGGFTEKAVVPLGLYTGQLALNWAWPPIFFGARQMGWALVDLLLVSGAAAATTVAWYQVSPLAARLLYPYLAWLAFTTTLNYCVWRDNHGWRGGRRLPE
T1 sequence (P30536 2-169 T147A): as the sequence (P30536 2-169) above, with T146A counted along it

Ki (TSPO [5]) [nM]	Ki (TSPO [6]) [nM]	SMILES	Low:High affinity ratio (TSPO [4])	also measured
		CCN(CC)C(=O)C1Sc2ccccc2-c2c1c1c(OC)cccc1n2CCF (racemic) [Compound 1, N,N-diethyl-11-(2-fluoroethyl)-7-methoxy-6,11-dihydrothiochromeno[4,3-b]indole-6-carboxamide]		Ki (TSPO [1]): 0.05 nM; Ki (TSPO [2]): 0.51 nM; Low:High affinity ratio (TSPO [3]): 9.87
		CCN(CC)C(=O)[C@H]1CCCc2c1c1c(OC)cccc1n2CCF (stereo in doubt) [GE180, 9-(2-Fluoro-ethyl)-5-methoxy-2,3,4,9-tetrahydro-1H-carbazole-4-carboxylic acid diethylamide]	3	Low:High affinity ratio (TSPO [3]): 15.44
15	31	CCN(CC)C(=O)[C@@H]1Sc2ccccc2-c2c1c1ccc(OC)cc1n2CCF [Compound 1 E1]	2	
3	4	CCN(CC)C(=O)[C@H]1Sc2ccccc2-c2c1c1ccc(OC)cc1n2CC[18F] [Compound 1 E2]	1	
4	117	COc1ccccc1CN(C(C)=O)c1cnccc1Oc1ccccc1 [PBR28, N-(2-methoxybenzyl)-N-(4-phenoxypyridin-3-yl)acetamide]	28	
		COc1ccccc1CN(C(C)=O)c1cnccc1Oc1ccccc1 [[^3H]PBR28]		lower TSPO affinity in LABs than in HABs (TSPO [7]): more than 10 fold
		CCC(C)N(C)C(=O)c1cc2ccccc2c(-c2ccccc2Cl)n1 (stereo not shown) [[^11C]PK11195]		in vivo specific binding in monkey brain, lower than that reported for [11C]PBR28 (TSPO [8]): ~80 fold
